Data reported in patent US11111251B2, “Positive allosteric modulators of the muscarinic acetylcholine receptor M1” (Vanderbilt University, priority 2016, dated 2021).
Where two headings read alike, the source gives them in different places.

Biological target: T1, human mAChR M1 (Homo sapiens, UniProt P11229)
T1 sequence (P11229 1-460): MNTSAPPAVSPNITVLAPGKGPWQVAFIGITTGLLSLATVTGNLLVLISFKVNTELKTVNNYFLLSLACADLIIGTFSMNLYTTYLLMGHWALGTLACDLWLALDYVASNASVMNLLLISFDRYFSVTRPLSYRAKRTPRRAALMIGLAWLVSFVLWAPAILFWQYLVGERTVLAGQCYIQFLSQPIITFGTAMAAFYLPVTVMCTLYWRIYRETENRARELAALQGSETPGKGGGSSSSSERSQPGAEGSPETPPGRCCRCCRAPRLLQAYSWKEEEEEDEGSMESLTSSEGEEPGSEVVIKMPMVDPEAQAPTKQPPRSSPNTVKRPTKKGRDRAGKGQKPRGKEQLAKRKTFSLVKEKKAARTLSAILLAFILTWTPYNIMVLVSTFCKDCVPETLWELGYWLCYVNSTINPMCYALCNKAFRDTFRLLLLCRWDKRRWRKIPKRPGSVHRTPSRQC
Assay: mAChR M1 cell-based functional assay: calcium mobilization, positive allosteric modulator mode (increase in EC20 acetylcholine response)
Settings: for EC50: read-out: Human M1 EC50; for Emax: read-out: Human M1 Emax (%)
Outline: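 PAM potency reflects the concentration-dependent increase in calcium response to an EC20 acetylcholine challenge, given 144 s into a 300 s read after compound addition at 4 s (EC80 follows at 230 s). Cells were hM1-expressing CHO-K1, loaded 50 min with Fluo-4 AM. Curves used 11 points at 1:3 dilutions and four-parameter logistic fitting.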

Compound | EC50 (Table 2, human M1) | Emax (Table 2, human M1) | Emax
Cn1cc(-c2ccc(Cc3cc(C(=O)NC4CCOCC4)nc4ccn(C)c34)cn2)cn1 [Compound 470, 1-methyl-7-[[6-(1-methylpyrazol-4-yl)-3-pyridyl]methyl]-N-tetrahydropyran-4-yl-pyrrolo[3,2-b]pyridine-5-carboxamide] | 223 nM | 86% | –
Cn1cc(-c2ccc(Cc3cc(C(=O)NC4CC5(COC5)C4)nc4ccn(C)c34)cn2)cn1 [Compound 471, 1-methyl-7-[[6-(1-methylpyrazol-4-yl)-3-pyridyl]methyl]-N-(2-oxaspiro[3.3]heptan-6-yl)pyrrolo[3,2-b]pyridine-5-carboxamide] | 390 nM | 85.4% | –
Cn1cc(-c2ccc(Cc3cc(C(=O)NC4CCOC(C)(C)C4)nc4ccn(C)c34)cn2)cn1 (centres unmarked) [Compound 472, N-(2,2-dimethyltetrahydropyran-4-yl)-1-methyl-7-[[6-(1-methylpyrazol-4-yl)-3-pyridyl]methyl]pyrrolo[3,2-b]pyridine-5-carboxamide] | 422 nM | 85.6% | –
Cn1ccc(-c2ccc(Cc3cc(C(=O)NC4CCOCC4)nc4ccn(C)c34)cc2)n1 [Compound 473, 1-methyl-7-[[4-(1-methylpyrazol-3-yl)phenyl]methyl]-N-tetrahydropyran-4-yl-pyrrolo[3,2-b]pyridine-5-carboxamide] | 106 nM | 85.8% | –
Cn1ccc(-c2ccc(Cc3cc(C(=O)N[C@H]4CCOC[C@@H]4O)nc4ccn(C)c34)cc2)n1 [Compound 474, N-[(3R,4S)-3-hydroxytetrahydropyran-4-yl]-1-methyl-7-[[4-(1-methylpyrazol-3-yl)phenyl]methyl]pyrrolo[3,2-b]pyridine-5-carboxamide] | 6.43 nM | 70.4% | –
Cn1ccc(-c2ccc(Cc3cc(C(=O)NC4CC5(COC5)C4)nc4ccn(C)c34)cc2)n1 [Compound 475, 1-methyl-7-[[4-(1-methylpyrazol-3-yl)phenyl]methyl]-N-(2-oxaspiro[3.3]heptan-6-yl)pyrrolo[3,2-b]pyridine-5-carboxamide] | 183 nM | 83.5% | –
Cn1ccc(-c2ccc(Cc3cc(C(=O)NCC4CCOCC4)nc4ccn(C)c34)cc2)n1 [Compound 476, 1-methyl-7-[[4-(1-methylpyrazol-3-yl)phenyl]methyl]-N-(tetrahydropyran-4-ylmethyl)pyrrolo[3,2-b]pyridine-5-carboxamide] | 280 nM | 83.5% | –
Cn1ccc(-c2ccc(Cc3cc(C(=O)NC4CCOCC4(C)C)nc4ccn(C)c34)cc2)n1 (centres unmarked) [Compound 477, N-(3,3-dimethyltetrahydropyran-4-yl)-1-methyl-7-[[4-(1-methylpyrazol-3-yl)phenyl]methyl]pyrrolo[3,2-b]pyridine-5-carboxamide] | 200 nM | 86.4% | –
Cn1ccc2nc(C(=O)N[C@H]3CCOC[C@@H]3O)cc(Cc3ccc(-c4nccs4)cc3)c21 [Compound 478, N-[(3R,4S)-3-hydroxytetrahydropyran-4-yl]-1-methyl-7-[(4-thiazol-2-ylphenyl)methyl]pyrrolo[3,2-b]pyridine-5-carboxamide] | 6.24 nM | 53.2% | –
Cn1ccc2nc(C(=O)N[C@H]3CCCC[C@@H]3O)cc(Cc3ccc(-c4nccs4)cc3)c21 [Compound 479, N-[(1S,2S)-2-hydroxycyclohexyl]-1-methyl-7-[(4-thiazol-2-ylphenyl)methyl]pyrrolo[3,2-b]pyridine-5-carboxamide] | 41 nM | 52.5% | –
Cn1ccc2nc(C(=O)NC3CCOCC3)cc(Cc3ccc(-c4nccs4)cc3)c21 [Compound 480, 1-methyl-N-tetrahydropyran-4-yl-7-[(4-thiazol-2-ylphenyl)methyl]pyrrolo[3,2-b]pyridine-5-carboxamide] | 360 nM | 57.2% | –
Cn1ccc2nc(C(=O)NC3CC4(COC4)C3)cc(Cc3ccc(-c4nccs4)cc3)c21 [Compound 481, 1-methyl-N-(2-oxaspiro[3.3]heptan-6-yl)-7-[(4-thiazol-2-ylphenyl)methyl]pyrrolo[3,2-b]pyridine-5-carboxamide] | 386 nM | 57% | –
Cn1ccc2nc(C(=O)N[C@H]3CC[C@@H]3O)cc(Cc3ccc(-c4nccs4)cc3)c21 [Compound 482, N-[(1S,2S)-2-hydroxycyclobutyl]-1-methyl-7-[(4-thiazol-2-ylphenyl)methyl]pyrrolo[3,2-b]pyridine-5-carboxamide] | 171 nM | 61.2% | –
Cn1ccc2nc(C(=O)N[C@H]3CCC[C@@H]3O)cc(Cc3ccc(-c4nccs4)cc3)c21 [Compound 483, N-[(1S,2S)-2-hydroxycyclopentyl]-1-methyl-7-[(4-thiazol-2-ylphenyl)methyl]pyrrolo[3,2-b]pyridine-5-carboxamide] | 65 nM | 58.6% | –
Cn1ccc2nc(C(=O)NC3CCOC(C)(C)C3)cc(Cc3ccc(-c4nccs4)cc3)c21 (centres unmarked) [Compound 484, N-(2,2-dimethyltetrahydropyran-4-yl)-1-methyl-7-[(4-thiazol-2-ylphenyl)methyl]pyrrolo[3,2-b]pyridine-5-carboxamide] | 704 nM | – | 47.2%
Cn1ccc2nc(C(=O)NC3CCOCC3(C)C)cc(Cc3ccc(-c4nccs4)cc3)c21 (centres unmarked) [Compound 485, N-(3,3-dimethyltetrahydropyran-4-yl)-1-methyl-7-[(4-thiazol-2-ylphenyl)methyl]pyrrolo[3,2-b]pyridine-5-carboxamide] | 662 nM | – | 61.6%
Cn1ccc2nc(C(=O)NCC3CCOCC3)cc(Cc3ccc(-c4nccs4)cc3)c21 [Compound 486, 1-methyl-N-(tetrahydropyran-4-ylmethyl)-7-[(4-thiazol-2-ylphenyl)methyl]pyrrolo[3,2-b]pyridine-5-carboxamide] | 483 nM | 37.5% | –
Cn1ccc2nc(C(=O)NC3CC(F)(F)C3)cc(Cc3ccc(-c4nccs4)cc3)c21 [Compound 487, N-(3,3-difluorocyclobutyl)-1-methyl-7-[(4-thiazol-2-ylphenyl)methyl]pyrrolo[3,2-b]pyridine-5-carboxamide] | 819 nM | 25.5% | –
Cn1ccc2nc(C(=O)NC3CC(F)C3)cc(Cc3ccc(-c4nccs4)cc3)c21 (centres unmarked) [Compound 488, N-(3-fluorocyclobutyl)-1-methyl-7-[(4-thiazol-2-ylphenyl)methyl]pyrrolo[3,2-b]pyridine-5-carboxamide] | 1150 nM | 37.5% | –
Cn1ncc2nc(C(=O)NC3CC4(COC4)C3)cc(Cc3ccc(-c4cscn4)cc3)c21 [Compound 489, 1-Methyl-N-(2-oxaspiro[3.3]heptan-6-yl)-7-[(4-thiazol-4-ylphenyl)methyl]pyrazolo[4,3-b]pyridine-5-carboxamide] | 2750 nM | 52% | –
Cn1ncc2nc(C(=O)N[C@@H]3CC[C@H]3O)cc(Cc3ccc(-c4cscn4)cc3)c21 [Compound 490, N-[(1R,2R)-2-hydroxycyclobutyl]-1-methyl-7-[(4-thiazol-4-ylphenyl)methyl]pyrazolo-[4,3-b]pyridine-5-carboxamide] | > 10000 nM | 61.9% | –
Cn1ncc2nc(C(=O)N[C@H]3CCC[C@@H]3O)cc(Cc3ccc(-c4cscn4)cc3)c21 [Compound 491, N-[(1S,2S)-2-hydroxycyelopentyl]-1-methyl-7-[(4-thiazol-4-ylphenyl)methyl]pyrazolo-[4,3-b]pyridine-5-carboxamide] | 1710 nM | 72.9% | –
Cn1ncc2nc(C(=O)N[C@H]3CCCC[C@@H]3O)cc(Cc3ccc(-c4cscn4)cc3)c21 [Compound 492, N-[(1S,2S)-2-hydroxycyclohexyl]-1-methyl-7-[(4-thiazol-4-ylphenyl)methyl]pyrazolo-[4,3-b]pyridine-5-carboxamide] | 504 nM | 73.3% | –
Cn1ncc2nc(C(=O)N[C@H]3CCOC[C@@H]3O)cc(Cc3ccc(-c4cscn4)cc3)c21 [Compound 493, N-[(3R,4S)-3-hydroxytetrahydropyran-4-yl]-1-methyl-7-[(4-thiazol-4-ylphenyl)-methyl]pyrazolo[4,3-b]pyridine-5-carboxamide] | 176 nM | 65.5% | –
Cn1ncc2nc(C(=O)NCC3CCO3)cc(Cc3ccc(-c4cscn4)cc3)c21 (centres unmarked) [Compound 494, 1-methyl-N-(oxetan-2-ylmethyl)-7-[(4-thiazol-4-ylphenyl)methyl]pyrazolo-[4,3-b]pyridine-5-carboxamide] | 5020 nM | 52.2% | –
Cn1ncc2nc(C(=O)NC[C@H]3CCCO3)cc(Cc3ccc(-c4cscn4)cc3)c21 [Compound 495, 1-methyl-N-[[(2R)-tetrahydrofuran-2-yl]methyl]-7-[(4-thiazol-4-ylphenyl)methyl]-pyrazolo[4,3-b]pyridine-5-carboxamide] | 3910 nM | 65.1% | –
Cn1ncc2nc(C(=O)N[C@@H]3CC[C@H]3O)cc(Cc3ccc(-n4cccn4)cc3)c21 [Compound 496, N-[(1R,2R)-2-hydroxycyclobutyl]-1-methyl-7-[(4-pyrazol-1-ylphenyl)methyl]pyrazolo-[4,3-b]pyridine-5-carboxamide] | > 10000 nM | 65.7% | –
Cn1ncc2nc(C(=O)N[C@H]3CCC[C@@H]3O)cc(Cc3ccc(-n4cccn4)cc3)c21 [Compound 497, N-[(1S,2S)-2-hydroxycyelopentyl]-1-methyl-7-[(4-pyrazol-1-ylphenyl)methyl]pyrazolo-[4,3-b]pyridine-5-carboxamide] | 1180 nM | 68.1% | –
